Measurements: ChEMBL document CHEMBL5634105, “Novel chlorin e6-based conjugates of tyrosine kinase inhibitors: Synthesis and photobiological evaluation as potent photosensitizers for photodynamic therapy” (Eur J Med Chem, 2023)
Active and inactive are the calls of the source. The rule behind the calls is not given here.

Columns and labels:
[1] = Ratio of IC50 for cytotoxicity against human L02 cells incubated under dark condition by CCK-8 assay to IC50 for cytotoxicity against human L02 cells incubated under 10 J/cm2 light irradiation at 660 nm by CCK-8 assay; type: functional
[2] = Photostability of compound assessed as compound degradation at 20 uM incubated for 2.5 hrs under 20 mW/cm2 light irradiation by spectrophotometric analysis; type: physicochemical; details: read-out: Drug degradation
[3] = Drug accumulation in human HepG2 cells assessed as subcellular localization in mitochondria at 5 uM incubated for 24 hrs by lyso-tracker green DND-26 probe based spectral confocal microscopic analysis; type: ADME; details: hepg2, 24 h
[4] = Drug accumulation in human HepG2 cells assessed as subcellular localization in golgi apparatus at 5 uM incubated for 24 hrs by golgi-tracker green probe based spectral confocal microscopic analysis; type: ADME, cell-based; details: hepg2, 24 h
HepG2 [5] = assay: Induction of apoptosis in human HepG2 cells assessed as late apoptotic cells at 30 uM incubated for 24 hrs under 10 J/cm2 light irradiation by annexin V-FITC/propidium iodide staining based flow cytometry (Rvb= 4.73 %); type: functional
HepG2 [6] = assay: Induction of autophagy in human HepG2 cells assessed as increase in autophagosome number by measuring rosy fluorescence at 5 uM incubated for 24 hrs under 1 J/cm2 light irradiation by DAPRed dye based confocal microscopy; type: functional, cell-based
HepG2 [7] = assay: Induction of cell cycle arrest in human HepG2 cells assessed as accumulation of cells at G2 phase at 0.5 uM incubated for 24 hrs under 10 J/cm2 light irradiation by propidium iodide staining based flow cytometry (Rvb= 17.11 %); type: functional

SMILES: C=Cc1c(C)c2cc3nc(c(CC(=O)NCCOCCOCCOCCC(=O)OCCN4CCN(c5cc(Nc6ncc(C(=O)Nc7c(C)cccc7Cl)s6)nc(C)n5)CC4)c4[nH]c(cc5nc(cc1[nH]2)C(C)=C5CC)c(C)c4C(=O)O)[C@@H](CCC(=O)O)[C@@H]3C
- Ratio IC50 [1]: 48.78
- degraded at 2.5 h, 20 µM [2]: 4.7%
- Drug uptake [3]: Active
- Drug uptake [4]: Active
- Activity (HepG2 [5]): 1.55%
- Activity (HepG2 [6]): Active
- Activity (HepG2 [7]): 12.74%
